Entries after “also recorded” stand apart in the source; their conditions may differ. Like-named read-outs stand apart in the source and are kept apart here.
Columns and labels:
[1] = system: immune cell subsets in 4T1 tumors; assay: Mass cytometry (CyTOF) of immune cell subsets in 4T1 tumors; format: in vivo, BALB/c mice
Description: Single cell suspensions were prepared from 4T1 tumors grown in BALC/c mice treated for 12 days with control (CON), 100 μg of anti-PD-L1 antibody Q3 days (PD-L1), 50 mg/kg SERD128 via oral gavage (SERD128) or combined (PD-L1+SERD128). Cells were labeled with specific antibodies and analyzed by mass cytometry (cyTOF).
Cells were labeled with specific antibodies and analyzed by mass cytometry (CyTOF).
Tumors from each mouse were harvested after 10-12 days of treatment as described above. Single cell suspensions were generated from tumors using the MACS mouse tumor dissociation kit (Miltenyi Biotech Cat. 130-096-730) following manufacturer's instructions. One million cells per tumor were resuspended in PBS and labeled with Cell-ID Cisplatin (Fluidigm, Cat. 201064) to assess for live/dead cells. For antibody labeling, we used the recommended cell surface staining procedure (Fluidigm) followed by the FoxP3/Transcription Staining Buffer Set protocol (eBiosciences™). Cells were labeled with a panel of 28 metal-conjugated antibodies to determine different immune lineages in addition to memory, trafficking, activation, and exhaustion markers (see Tables 2-3 for list of antibodies). After washing and centrifugation, cells were fixed using MaxPar Fix and Perm buffer (Fluidigm, Cat. 201067) and labelled for single cell discrimination with Cell-ID Intercalator-Ir (Fluidigm, Cat. 201192A). Samples were resuspended with 10% EQ four-element calibration beads (Fluidigm, Cat. 201078), and filtered through a 40 μm mesh filter prior to acquisition on a HELIOS' mass cytometer (Fluidigm), at a rate of 300-500 events/s.
Collected mass cytometry data was analyzed as previously described. Briefly, samples were normalized utilizing a bead standard. First, each cytometry file was processed in FLOWJO (v10.3), then manually gated for stability of signal over time, followed by exclusion of normalization beads, ratio of DNA intercalators (191Ir+vs 193Ir+), with finally single cell events (Ir193 vs event length) (FIG. 24A). After that, viable (195Pt−)CD45+ events were exported and uploaded into the X-shift (VorteX) clustering environment to obtain the k-nearest-neighbor density estimation as described before. Dimensionality reduction of unclustered data was performed using the t-stochastic neighborhood embedding (t-SNE) and PhenoGraph algorithms implemented in the Cytofkit library, supplied by BIOCONDUCTOR v.3.4 and run in RSTUDIO v.1.1.463. A fixed number of 10,000 cells were sampled without replacement from each file and combined for analysis. Resulting t-SNE plots were subsequently filtered by marker expression to visualize differences between different treatment groups. Heatmaps were generated using Z-scores based on median marker expression (excel and Prism v7).

[2] = system: myeloid-derived suppressor cells (MDSC); assay: Expansion of human MDSC from bone marrow of BC patients, flow cytometry; format: cell-based; conditions: 1 μM in normal medium with GM-CSF and IL-6, 5-6 days
Text: Bone Marrow cells from three breast cancer patients were purified by established methods including red blood cell lysis and Ficoll gradients (1-3,5, 5-7) and then cultured in the presence of IL-6 and GM-CSF in either estrogen-free medium (EFM), normal medium with control vehicle (NM) (which contains estrogens), normal medium with 1-μM fulvestrant (NM+FULV) or normal medium with 1-μM S128 (NM+S128). After 5 days, myeloid-derived cell populations were then identified by following the gating strategy of Ruffell et al. (2) as modified by Svoronos et al. (1). A) Percentage of total MDSC within CD45^+ population.
Total number of human MDSC derived from bone marrow (BM) of three of three BC patients (P<0.05). Cells were incubated in the presence of GM-CSF and IL-6 for 6 days in either regular RPMI medium+15% FBS (NM) (contains estrogens) or in phenol red-free medium with 15% charcoal coated-dextran treated FBS (EFM)(estrogen-depleted) with or without the addition of 100 nM estradiol-17β (EFM+E2). Normal cell culture medium (NM) drives E2-dependent signaling due to the presence of various estrogens in FBS as well as the estrogenic properties of phenol red. These effects were inhibited by the SERDs fulvestrant (FULV) and S128 at 1 μM
FIGS. 22A-22B show expansion of MDSCs is dependent on estrogen signaling and reversed by antiestrogens. […]
Human myeloid-derived suppressor cells were expanded from bone marrow (BM) specimens of BC patients after standard Ficoll gradient purification and red blood cell lysis. […] After 6 days of culture, cells were harvested, stained with a 14 antibody panel including anti-phospho-STAT3 (pSTAT3) and analyzed by flow cytometry with an LSRII with a 5 lasers (UV, violet, blue, green-yellow and red). […]

| SMILES | B regulatory cells (CD19+ CD25+ CD69+, gated on CD19+) [1] | M1 macrophages (MHCII high) [1] | M2 macrophages (MHCII low) [1] | markers of CD8+ TIL activation and/or proliferation [1] | stimulatory/myeloid dendritic cells (mDCs) [1] | total dendritic cells (CD11c+MHCII+) [1] | markers of CD8+ TIL activation and/or proliferation ([1]; listed as S128) | total MDSC numbers (expansion of MDSC) [2] | total MDSC numbers (expansion of MDSC) ([2]; listed as S128) |
| --- | --- | --- | --- | --- | --- | --- | --- | --- | --- |
| C[C@]12C[C@H](Oc3ccc(N)c(C(F)(F)F)c3)[C@@H]3c4ccc(O)cc4CC[C@H]3[C@@H]1CC[C@@H]2O [SERD128, (8S,9S,11S,13S,14S,17S)-11-(4-Amino-3-(trifluoromethyl)phenoxy)-13-methyl-7,8,9,11,12,13,14,15,16,17-decahydro-6H-cyclopenta[a]phenanthrene-3,17-diol] | decreases expression of B regulatory cells; also recorded: decrease expression of this subpopulation | increase in the M1 tumoricidal population of macrophages; also recorded: increases the ER+M1-tumoricidal subset of macrophages | notable decrease in the M2 phenotype; also recorded: reduces the M2-phenotype | promotes enhanced proliferation and activation of CD8^+ T-cells | increase expression of total dendritic cells (DC) and their stimulatory/myeloid subgroup; also recorded: increased population of mDCs | increase expression of total dendritic cells; also recorded: increased population of mDCs in 4T1 tumors as well as the total population of DCs | increased | significantly inhibited; also recorded: inhibits expansion and activation; also recorded: block E2-induced expansion of MDSCs; also recorded: exceeds that of fulvestrant at equivalent doses | substantially decreased; also recorded: inhibited; also recorded: inhibits E2-induced expansion of MDSC |
| C[C@]12CC[C@@H]3c4ccc(O)cc4C[C@@H](CCCCCCCCC[S+]([O-])CCCC(F)(F)C(F)(F)F)[C@H]3[C@@H]1CC[C@@H]2O (some centres unmarked) [fulvestrant, reference compound] |  |  |  |  |  | increased the population of DCs in 4T1 tumors |  | substantially decreased; also recorded: significantly inhibited; also recorded: block E2-induced expansion of MDSCs |  |

Reference: US20220133747A1, “ESTROGEN RECEPTOR INHIBITORS AND USES THEROF” (The Regents of the University of California, priority 2018, published 2022)
